{"source": "patent US5439930A", "about": "“Biologically active n-acylprolydipeptides having antiamnestic, antihypoxic and anorexigenic effects” (Russian-American Institute for New Drug Development, priority 1992, dated 1995)", "test_system": "active avoidance learning, rats", "assay": "Active avoidance learning in shuttle-box test", "assay_type": "in vivo", "from_the_text": "The influence of Compound I on the active avoidance learning was studied in shuttle-box test (Ugo Basile, Italy). The conditioned reflex of active avoidance had been developed for 5 days with 50 daily trials for each rat. The learning task consisted in the rats' avoiding of the electric shock applied through the cage floor directly after sound. Rats could avoid the shock by moving into another compartment of the cage, but only while the sound was present (3 sec.).", "note": "Where a SMILES comes first, the peptide text is derived from it. The star is where a group is joined. PhAc = O=C(Cc1ccccc1)*"}
{"smiles": "CCOC(=O)CNC(=O)[C@@H]1CCCN1C(=O)Cc1ccccc1", "note": "[Compound I, N-phenacetyl-L-prolylglycine ethyl ester] (PhAc-Pro-Gly-OEt)", "values": [{"measurement": "Percentage of the rats reached the stable avoidance", "setting": "day 1 of learning, 0.1 mg/kg daily i.p. 14 days before and during learning", "value": 0}, {"measurement": "Percentage of the rats reached the stable avoidance", "setting": "day 2 of learning, 0.1 mg/kg daily i.p.", "value": 15}, {"measurement": "Percentage of the rats reached the stable avoidance", "setting": "day 3 of learning, 0.1 mg/kg daily i.p.", "value": 43}, {"measurement": "Percentage of the rats reached the stable avoidance", "setting": "day 4 of learning, 0.1 mg/kg daily i.p.", "value": 57}, {"measurement": "Percentage of the rats reached the stable avoidance", "setting": "day 5 of learning, 0.1 mg/kg daily i.p.", "value": 67}]}
